# Columns and labels:
# Experiment in all cases: relative viability (nuclei count vs DMSO), 5 days (fraction); higher = more cells survive
# BEN = tested on: BEN
# How it was run: (§1)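 One day after seeding in 1536-well plates, lung cancer cell lines were dosed by pin tool. Dosing was either single-drug or a fixed anchor-drug dose plus five library-drug doses (not always all listed) in √10 steps. After 5 days, nuclei were stained in one fix-and-stain step and counted on 4× images, and relative viability is the nuclei count of treated wells over that of vehicle wells, given as the median of duplicate plates.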
# NCI-H838 = tested on: NCI-H838
# How it was run: as §1
# SK-LU-1 = tested on: SK-LU-1
# How it was run: as §1
# LOU-NH91 = tested on: LOU-NH91
# How it was run: as §1
# NCI-H1437 = tested on: NCI-H1437
# How it was run: as §1
# NCI-H1651 = tested on: NCI-H1651
# How it was run: as §1
# NCI-H1975 = tested on: NCI-H1975
# How it was run: as §1
# NCI-H1734 = tested on: NCI-H1734
# How it was run: as §1
# NCI-H1563 = tested on: NCI-H1563
# How it was run: as §1
# HCC-366 = tested on: HCC-366
# How it was run: as §1
# COR-L23 = tested on: COR-L23
# How it was run: as §1
# NCI-H2023 = tested on: NCI-H2023
# How it was run: as §1
# NCI-H358 = tested on: NCI-H358
# How it was run: as §1
# NCI-H441 = tested on: NCI-H441
# How it was run: as §1
# NCI-H1650 = tested on: NCI-H1650
# How it was run: as §1
# NCI-H1355 = tested on: NCI-H1355
# How it was run: as §1
# NCI-H460 = tested on: NCI-H460
# How it was run: as §1
# LU99A = tested on: LU99A
# How it was run: as §1
# NCI-H2085 = tested on: NCI-H2085
# How it was run: as §1
# CAL-12T = tested on: CAL-12T
# How it was run: as §1
smiles,measurement,setting,value
O=c1cc(-c2cccc3c2Sc2ccccc2S3)oc(N2CCOCC2)c1 + C[C@@H](Oc1cc(-c2cnn(C3CCNCC3)c2)cnc1N)c1c(Cl)ccc(F)c1Cl [Crizotinib] (partner 1 µM),relative viability,BEN; first compound 0.08 µM,0.925
same,relative viability,BEN; first compound 0.253 µM,1.02
same,relative viability,BEN; first compound 0.8 µM,1.1
same,relative viability,BEN; first compound 2.53 µM,0.85
same,relative viability,BEN; first compound 8 µM,1.14
same,relative viability,NCI-H838; first compound 0.08 µM,0.883
same,relative viability,NCI-H838; first compound 0.253 µM,0.988
same,relative viability,NCI-H838; first compound 0.8 µM,0.82
same,relative viability,NCI-H838; first compound 2.53 µM,0.794
same,relative viability,NCI-H838; first compound 8 µM,0.816
same,relative viability,SK-LU-1; first compound 0.08 µM,0.812
same,relative viability,SK-LU-1; first compound 0.253 µM,1.04
same,relative viability,SK-LU-1; first compound 0.8 µM,1.14
same,relative viability,SK-LU-1; first compound 2.53 µM,0.905
same,relative viability,SK-LU-1; first compound 8 µM,0.849
same,relative viability,LOU-NH91; first compound 0.08 µM,0.727
same,relative viability,LOU-NH91; first compound 0.253 µM,0.718
same,relative viability,LOU-NH91; first compound 0.8 µM,0.707
same,relative viability,LOU-NH91; first compound 2.53 µM,0.702
same,relative viability,LOU-NH91; first compound 8 µM,0.776
same,relative viability,NCI-H1437; first compound 0.08 µM,1.09
same,relative viability,NCI-H1437; first compound 0.253 µM,1.18
same,relative viability,NCI-H1437; first compound 0.8 µM,1.24
same,relative viability,NCI-H1437; first compound 2.53 µM,0.899
same,relative viability,NCI-H1437; first compound 8 µM,1.07
same,relative viability,NCI-H1651; first compound 0.08 µM,0.916
same,relative viability,NCI-H1651; first compound 0.253 µM,0.889
same,relative viability,NCI-H1651; first compound 0.8 µM,0.916
same,relative viability,NCI-H1651; first compound 2.53 µM,0.882
same,relative viability,NCI-H1651; first compound 8 µM,0.903
same,relative viability,NCI-H1975; first compound 0.08 µM,1.01
same,relative viability,NCI-H1975; first compound 0.253 µM,1.02
same,relative viability,NCI-H1975; first compound 0.8 µM,0.922
same,relative viability,NCI-H1975; first compound 2.53 µM,0.837
same,relative viability,NCI-H1975; first compound 8 µM,0.98
same,relative viability,NCI-H1734; first compound 0.08 µM,0.686
same,relative viability,NCI-H1734; first compound 0.253 µM,0.802
same,relative viability,NCI-H1734; first compound 0.8 µM,0.9
same,relative viability,NCI-H1734; first compound 2.53 µM,0.872
same,relative viability,NCI-H1734; first compound 8 µM,0.672
same,relative viability,NCI-H1563; first compound 0.08 µM,0.93
same,relative viability,NCI-H1563; first compound 0.253 µM,0.758
same,relative viability,NCI-H1563; first compound 0.8 µM,0.792
same,relative viability,NCI-H1563; first compound 2.53 µM,0.804
same,relative viability,NCI-H1563; first compound 8 µM,0.887
same,relative viability,HCC-366; first compound 0.08 µM,0.53
same,relative viability,HCC-366; first compound 0.253 µM,0.731
same,relative viability,HCC-366; first compound 0.8 µM,0.725
same,relative viability,HCC-366; first compound 2.53 µM,0.498
same,relative viability,HCC-366; first compound 8 µM,1.1
same,relative viability,COR-L23; first compound 0.08 µM,0.744
same,relative viability,COR-L23; first compound 0.253 µM,0.876
same,relative viability,COR-L23; first compound 0.8 µM,0.792
same,relative viability,COR-L23; first compound 2.53 µM,0.737
same,relative viability,COR-L23; first compound 8 µM,0.616
same,relative viability,NCI-H2023; first compound 0.08 µM,0.673
same,relative viability,NCI-H2023; first compound 0.253 µM,0.682
same,relative viability,NCI-H2023; first compound 0.8 µM,0.787
same,relative viability,NCI-H2023; first compound 2.53 µM,0.648
same,relative viability,NCI-H2023; first compound 8 µM,0.646
same,relative viability,NCI-H358; first compound 0.08 µM,0.629
same,relative viability,NCI-H358; first compound 0.253 µM,0.634
same,relative viability,NCI-H358; first compound 0.8 µM,0.657
same,relative viability,NCI-H358; first compound 2.53 µM,0.466
same,relative viability,NCI-H358; first compound 8 µM,0.574
same,relative viability,NCI-H441; first compound 0.08 µM,0.697
same,relative viability,NCI-H441; first compound 0.253 µM,1.28
same,relative viability,NCI-H441; first compound 0.8 µM,0.779
same,relative viability,NCI-H441; first compound 2.53 µM,0.807
same,relative viability,NCI-H441; first compound 8 µM,1
same,relative viability,NCI-H1650; first compound 0.08 µM,0.998
same,relative viability,NCI-H1650; first compound 0.253 µM,0.956
same,relative viability,NCI-H1650; first compound 0.8 µM,0.945
same,relative viability,NCI-H1650; first compound 2.53 µM,0.963
same,relative viability,NCI-H1650; first compound 8 µM,1.35
same,relative viability,NCI-H1355; first compound 0.08 µM,1.08
same,relative viability,NCI-H1355; first compound 0.253 µM,1.16
same,relative viability,NCI-H1355; first compound 0.8 µM,1.04
same,relative viability,NCI-H1355; first compound 2.53 µM,1.06
same,relative viability,NCI-H1355; first compound 8 µM,0.98
same,relative viability,NCI-H460; first compound 0.08 µM,1
same,relative viability,NCI-H460; first compound 0.8 µM,0.761
same,relative viability,NCI-H460; first compound 2.53 µM,1.12
same,relative viability,NCI-H460; first compound 8 µM,1.79
same,relative viability,LU99A; first compound 0.08 µM,0.552
same,relative viability,LU99A; first compound 0.253 µM,0.574
same,relative viability,LU99A; first compound 0.8 µM,0.932
same,relative viability,LU99A; first compound 2.53 µM,0.596
same,relative viability,LU99A; first compound 8 µM,0.701
same,relative viability,NCI-H2085; first compound 0.08 µM,0.913
same,relative viability,NCI-H2085; first compound 0.253 µM,1.06
same,relative viability,NCI-H2085; first compound 0.8 µM,0.939
same,relative viability,NCI-H2085; first compound 2.53 µM,0.832
same,relative viability,NCI-H2085; first compound 8 µM,0.93
same,relative viability,CAL-12T; first compound 0.08 µM,0.729
same,relative viability,CAL-12T; first compound 0.253 µM,0.686
same,relative viability,CAL-12T; first compound 0.8 µM,0.85
same,relative viability,CAL-12T; first compound 2.53 µM,0.6
same,relative viability,CAL-12T; first compound 8 µM,0.731
